PMC9411599
Where two headings read alike, the source gives them in different places.

Columns and labels:
[1] = photoredox thiol-yne dihydrothiolation of acetylene by dithiol ([1+1] macrocyclisation, forms S-CH2CH2-S bridge); [Ir(d(tBu)(CF3)ppy)2(dtbbpy)]Cl 1 mol%, DIPEA 1.5 equiv, acetylene balloon, blue LEDs 455 nm; settings: the molecule shown is the open-chain precursor, DMF/H2O 50:1, 50.0 mM, 25.0 °C
[2] = the molecule shown is the open-chain precursor

Compound `O=C(OCCOc1ccc(OCCOC(=O)c2ccccc2S)cc1)c1ccccc1S` has a ring closure, isolated yield ([1]; 22-membered ring) of 0%.

For `CC(CC(C)OC(=O)CCS)OC(=O)CCS` (racemic) [8 (+/-)], the ring closure, isolated yield ([1]; 15-membered ring, 12.0 h) was 33%.

In the case of `O=C(CCS)OCCCCCCOc1cccc2c1C1(CC2)CCc2cccc(OCCCCCCOC(=O)CCS)c21` (single isomer, unassigned) [51 ((R)-spirobiindane, stereo not in SMILES)], the ring closure, isolated yield ([1]; 31-membered ring, 12.0 h) was 21%.

`O=C(CS)OCCCCOC(=O)CS` [4] showed a ring closure, isolated yield ([1]; 14-membered ring, 12.0 h) of 32%.

For `O=C(CCS)OCCOC(=O)CCS` [5], the ring closure, isolated yield ([1]; 14-membered ring, 12.0 h) was 42%.

`O=C(CCS)OCCCOC(=O)CCS` [6] gave a ring closure, isolated yield ([1]; 15-membered ring, 12.0 h) of 30%.

With `CC(COC(=O)CCS)COC(=O)CCS` [7] the ring closure, isolated yield ([1]; 15-membered ring, 12.0 h) was 27%.

Compound `CC(C)(COC(=O)CCS)COC(=O)CCS` [9] has a ring closure, isolated yield ([1]; 15-membered ring, 12.0 h) of 32%.

In the case of `O=C(CCS)OCCCCOC(=O)CCS` [10], the ring closure, isolated yield ([1]; 16-membered ring, 12.0 h) was 36%.

Work on `O=C(CCS)OCCCCCOC(=O)CCS` [11] yielded a ring closure, isolated yield ([1]; 17-membered ring, 12.0 h) of 38%.

For `O=C(CCS)OCCCCCCOC(=O)CCS` [12], the ring closure, isolated yield ([1]; 18-membered ring, 12.0 h) was 23%.

In the case of `O=C(CCCCCCC(=O)OCCS)OCCS` [13], the ring closure, isolated yield ([1]; 18-membered ring, 12.0 h) was 28%.

`O=C(CCS)OCCCCCCCOC(=O)CCS` [14 (=3)] gave a ring closure, isolated yield ([1]; 19-membered ring, 12.0 h) of 26%.

`O=C(CCS)OCCCCCCCCOC(=O)CCS` [15] gave a ring closure, isolated yield ([1]; 20-membered ring, 12.0 h) of 22%.

`O=C(CCS)OCCCCCCCCCOC(=O)CCS` [16] showed a ring closure, isolated yield ([1]; 21-membered ring, 12.0 h) of 24%.

Work on `O=C(CCS)OCCCCCCCCCCOC(=O)CCS` [17] yielded a ring closure, isolated yield ([1]; 22-membered ring, 12.0 h) of 20%.

With `O=C(CCS)OCCCCCCCCCCCCOC(=O)CCS` [18] the ring closure, isolated yield ([1]; 24-membered ring, 12.0 h) was 25%.

With `O=C(CCS)OCCCCCCCCCCCCCCOC(=O)CCS` [19] the ring closure, isolated yield ([1]; 26-membered ring, 12.0 h) was 21%.

Compound `O=C(OCCCCCCS)C(F)(F)C(F)(F)C(=O)OCCCCCCS` [20] has a ring closure, isolated yield ([1]; 22-membered ring, 12.0 h) of 33%.

In the case of `O=C(OCCCCCCS)C(F)(F)C(F)(F)C(F)(F)C(F)(F)C(=O)OCCCCCCS` [21], the ring closure, isolated yield ([1]; 24-membered ring, 12.0 h) was 31%.

Work on `O=C(COCC(=O)OCCCCCCS)OCCCCCCS` [22] yielded a ring closure, isolated yield ([1]; 23-membered ring, 12.0 h) of 23%.

`O=C(CCS)OCCOCCOC(=O)CCS` [23] showed a ring closure, isolated yield ([1]; 17-membered ring, 12.0 h) of 29%.

With `O=C(CCS)OCCOCCOCCOC(=O)CCS` [24] the ring closure, isolated yield ([1]; 20-membered ring, 12.0 h) was 28%.

`O=C(CCS)OCCOCCOCCOCCOC(=O)CCS` [25] showed a ring closure, isolated yield ([1]; 23-membered ring, 12.0 h) of 27%.

`O=C(CCS)OCCOCCOCCOCCOCCOCCOCCOCCOC(=O)CCS` [26] gave a ring closure, isolated yield ([1]; 35-membered ring, 12.0 h) of 18%.

In the case of `O=C(CCS)OCCN(CCOC(=O)CCS)c1ccccc1` [27], the ring closure, isolated yield ([1]; 17-membered ring, 12.0 h) was 38%.

For `CN(CC(=O)OCCCCCCS)CC(=O)OCCCCCCS` [28], the ring closure, isolated yield ([1]; 23-membered ring, 12.0 h) was 24%.

With `O=C(OCCCCCCS)[C@H]1CC[C@H](C(=O)OCCCCCCS)CC1` [29 (trans)] the ring closure, isolated yield ([1]; 24-membered ring, 12.0 h) was 26%.

`O=C(OCCCCCCS)C12CCC(C(=O)OCCCCCCS)(CC1)CC2` [30] gave a ring closure, isolated yield ([1]; 24-membered ring, 12.0 h) of 28%.

With `O=C(OCCCCCCS)C12CC3CC(C1)CC(C(=O)OCCCCCCS)(C3)C2` [31] the ring closure, isolated yield ([1]; 23-membered ring, 12.0 h) was 32%.

In the case of `O=C(CCS)OCCN1CCN(CCOC(=O)CCS)CC1` [32], the ring closure, isolated yield ([1]; 20-membered ring, 12.0 h) was 21%.

Compound `O=C(OCCCCCCS)c1ccccc1S` [33] has a ring closure, isolated yield ([1]; 14-membered ring, 12.0 h) of 25%.

For `O=C(CCS)OCc1ccccc1COC(=O)CCS` [34], the ring closure, isolated yield ([1]; 16-membered ring, 12.0 h) was 39%.

`O=C(COc1ccccc1OCC(=O)OCCCCCCS)OCCCCCCS` [35] showed a ring closure, isolated yield ([1]; 26-membered ring, 12.0 h) of 24%.

Work on `O=C(CCS)OCc1cccc(COC(=O)CCS)c1` [36] yielded a ring closure, isolated yield ([1]; 17-membered ring, 12.0 h) of 37%.

`O=C(CCS)OCc1ccc(COC(=O)CCS)cc1` [37] gave a ring closure, isolated yield ([1]; 18-membered ring, 12.0 h) of 8%.

Compound `O=C(CCS)OCCOc1ccc(OCCOC(=O)CCS)cc1` [38] has a ring closure, isolated yield ([1]; 22-membered ring, 12.0 h) of 22%.

`O=C(CCS)OCCCOc1ccc2ccc(OCCCOC(=O)CCS)cc2c1` [39] gave a ring closure, isolated yield ([1]; 25-membered ring, 12.0 h) of 31%.

Compound `O=C(CCS)OCc1cccc(COC(=O)CCS)n1` [40] has a ring closure, isolated yield ([1]; 17-membered ring, 12.0 h) of 32%.

`O=C(CCS)OCc1ccc(COC(=O)CCS)o1` [41] gave a ring closure, isolated yield ([1]; 17-membered ring, 12.0 h) of 15%.

`O=C(OCCCCCCS)[c-]1cccc1.O=C(OCCCCCCS)[c-]1cccc1.[Fe+2]` [42 (ferrocene)] gave a ring closure, isolated yield [2] of 8%.

`SCCCOc1ccc2ccccc2c1-c1c(OCCCS)ccc2ccccc12` [43 ((R)-BINOL, axial stereo not in SMILES)] showed a ring closure, isolated yield ([1]; 16-membered ring, 12.0 h) of 40%.

With `SCCCCCCOc1ccc2ccccc2c1-c1c(OCCCCCCS)ccc2ccccc12` [44 ((R)-BINOL, axial stereo not in SMILES)] the ring closure, isolated yield ([1]; 22-membered ring, 12.0 h) was 35%.

Compound `O=C(CCS)OCCCOc1ccc2ccccc2c1-c1c(OCCCOC(=O)CCS)ccc2ccccc12` [45 ((R)-BINOL, axial stereo not in SMILES)] has a ring closure, isolated yield ([1]; 24-membered ring, 12.0 h) of 30%.

`SCCCCCCCCOc1ccc2ccccc2c1-c1c(OCCCCCCCCS)ccc2ccccc12` [46 ((R)-BINOL, axial stereo not in SMILES)] gave a ring closure, isolated yield ([1]; 26-membered ring, 12.0 h) of 28%.

With `O=C(CCS)OCCCCCOc1ccc2ccccc2c1-c1c(OCCCCCOC(=O)CCS)ccc2ccccc12` [47 ((R)-BINOL, axial stereo not in SMILES)] the ring closure, isolated yield ([1]; 28-membered ring, 12.0 h) was 29%.

With `O=C(CCS)OCCCCCCOc1ccc2ccccc2c1-c1c(OCCCCCCOC(=O)CCS)ccc2ccccc12` [48 ((R)-BINOL, axial stereo not in SMILES)] the ring closure, isolated yield ([1]; 30-membered ring, 12.0 h) was 26%.

With `O=C(CCS)O[C@H]1CCCC[C@@H]1OC(=O)CCS` [49 (1S,2S per text; SI product procedure names 1R,2R)] the ring closure, isolated yield ([1]; 14-membered ring, 12.0 h) was 38%.

Compound `C[C@H](S)C(=O)NCC(=O)OCCCCCCS` [50 (S per text; SI also names R)] has a ring closure, isolated yield ([1]; 16-membered ring, 12.0 h) of 19%.

Compound `SCCS` [52 substrate (only [2+2])] has a ring closure, isolated yield ([1]; 6-membered ring, 12.0 h) of 0%.

`OC(CS)C(O)CS` (stereo not shown) [53 substrate (only [2+2])] showed a ring closure, isolated yield ([1]; 8-membered ring, 12.0 h) of 0%.

With `SCCCS` [54 substrate (only [2+2])] the ring closure, isolated yield ([1]; 7-membered ring, 12.0 h) was 0%.

`SCCCCS` [55 substrate (only [2+2])] gave a ring closure, isolated yield ([1]; 8-membered ring, 12.0 h) of 0%.

With `SCCCCCS` [56 substrate (only [2+2])] the ring closure, isolated yield ([1]; 9-membered ring, 12.0 h) was 0%.

`SCCCCCCS` [57 substrate (only [2+2])] showed a ring closure, isolated yield ([1]; 10-membered ring, 12.0 h) of 0%.

Work on `SCCCCCCCCS` [58 substrate (only [2+2])] yielded a ring closure, isolated yield ([1]; 12-membered ring, 12.0 h) of 0%.

Work on `SCCCCCCCCCS` [59 substrate (only [2+2])] yielded a ring closure, isolated yield ([1]; 13-membered ring, 12.0 h) of 0%.

`SCCCCCCCCCCS` [60 substrate (only [2+2])] showed a ring closure, isolated yield ([1]; 14-membered ring, 12.0 h) of 0%.

Work on `SCCOCCOCCS` [62 (dimer 61)] yielded a ring closure, isolated yield ([1]; 12-membered ring, 12.0 h) of 42%.

With `SCCOCCS` [64 (dimer 63)] the ring closure, isolated yield ([1]; 9-membered ring, 12.0 h) was 23%.

For `SCCSCCCSCCS` [66 (dimer 65)], the ring closure, isolated yield ([1]; 13-membered ring, 12.0 h) was 17%.
